The target in experiment [1] is T1, CDK5 (Homo sapiens, UniProt Q00535). The experiment is described as follows: biochemical.
Experiment [2] has as its target T1, CDK5. The experiment in a line: biochemical. This is another data set of the same source.
In experiment [3] the target is T1, CDK5. The experiment is described as follows: CDKACT5-Cy5 fluorescent kinase activity biosensor with U87 cell extract; residual activity at […], IC50 not fittable. It is filed as cell-based. The note with it: U-87 MG.

Read-outs that look alike come from different tables or passages of the source.

T1 sequence (Q00535 whole entry): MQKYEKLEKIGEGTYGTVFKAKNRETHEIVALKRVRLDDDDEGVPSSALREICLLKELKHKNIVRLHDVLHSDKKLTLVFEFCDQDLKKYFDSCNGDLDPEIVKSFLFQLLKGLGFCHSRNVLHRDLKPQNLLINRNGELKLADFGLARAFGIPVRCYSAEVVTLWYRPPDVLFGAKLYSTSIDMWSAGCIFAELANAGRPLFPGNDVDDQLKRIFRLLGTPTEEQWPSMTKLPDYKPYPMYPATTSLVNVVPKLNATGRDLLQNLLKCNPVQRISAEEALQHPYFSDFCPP
T1 sequence (Q15078 2-307 partner): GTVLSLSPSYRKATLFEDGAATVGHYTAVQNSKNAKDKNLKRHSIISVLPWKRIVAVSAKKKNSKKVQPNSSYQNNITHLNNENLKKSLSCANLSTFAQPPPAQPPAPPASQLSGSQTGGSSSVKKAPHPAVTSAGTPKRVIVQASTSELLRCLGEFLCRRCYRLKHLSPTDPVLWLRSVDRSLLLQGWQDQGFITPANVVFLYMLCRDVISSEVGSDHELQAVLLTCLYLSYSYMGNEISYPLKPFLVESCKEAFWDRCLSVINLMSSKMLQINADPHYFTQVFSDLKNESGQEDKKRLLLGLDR

On to `Nc1ccc2[nH]c(SCc3nc4ccccc4c(=O)n3-c3ccccc3)nc2c1` [5d, JMV5800], for which inhibition against CDK5 [1] was half-maximal at 8.29 ± 3.56 µM (IC50).

As for `Nc1ccc2[nH]c(SCc3nc4ccccc4c(=O)n3-c3cccc(Cl)c3)nc2c1` [5m, JMV5884], the IC50 against CDK5 [1] amounted to 7.6 ± 3.8 µM. With `Nc1ccc2[nH]c(SCc3nc4ccccc4c(=O)n3-c3ccccc3Br)nc2c1` [5j, JMV5886], the IC50 against CDK5 [2] turned out to be 24.4 ± 32.5 µM. `Cc1ccc2c(=O)n(-c3ccccc3)c(CSc3nc4cc(N)ccc4[nH]3)nc2c1` [5p, JMV5735]: the IC50 at CDK5 [2] came out at 9.35 ± 11.1 µM. On CDK5 [2], `Nc1ccc2[nH]c(SCc3nc4ccccc4c(=O)n3-c3ccc(Br)cc3)nc2c1` [5l, JMV5889] had an IC50 of 28.7 ± 51.2 µM. In the case of `Nc1ccc2[nH]c(SCc3nc4ccccc4c(=O)n3-c3cccc(C(F)(F)F)c3)nc2c1` [5a, JMV5798], at CDK5 [3], the activity at 100 µM came out at 40.2 ± 2.4%.

What is called IC50 is the midpoint of a concentration-inhibition curve. Read a low IC50 as greater potency.

The record behind these values is paper PMC7466635, “Identification of Quinazolinone Analogs Targeting CDK5 Kinase Activity and Glioblastoma Cell Proliferation” (Frontiers in Chemistry, 2020).
